Tested on: MDA-MB-231
Assay: Whole-cell gold uptake by ICP-OES
Type: cell-based
Conditions: MDA-MB-231, 5 μM, 24 h
Method: We next performed cellular uptake studies to determine what percentage of the compounds were getting into the cell after treatment. Given that most therapeutic targets are localized receptors on the plasma membrane, quantifying the amount of gold compounds in cellular fractions and investigating their mode of uptake is crucial. For whole-cell uptake studies, MDA-MB-231 were treated with all 10 compounds and Auranofin at 5 μM for 24 h (Fig. 5A). Auranofin is the only gold-based therapeutic to be clinically approved, therefor we used this drug as a benchmark for comparison.[67] After treatment, the cells were washed with PBS, centrifuged, and digested with 0.5 mL of conc. […] Given that these complexes readily react with nucleophilic biological molecules and the lack of accumulation in the nuclear fraction, it is evident that the mechanism of action of this class of compounds is differentiated from the clinically available platinum agents. […]
positive control. When ready for analysis, the media were removed and the wells washed with 5 mL of PBS. […] The cells were resuspended in 2 mL of fresh media, counted, and reconstituted to a concentration of 1 x 10^5 cells/mL. […]
Compound 2a was prepared as a stock in DMSO and added to the respective wells at the specified concentrations of 0.1, 1, and 10 µM and treated for 12 h. […] The samples were cooled and stored at −20 °C until ready for use. […]

SMILES	Intracellular uptake [pmol per million cells]
C[N+](C)=C1[S][Au-2]2([S]1)[c]1ccccc1C(=O)c1cccc[n+]12.F[P-](F)(F)(F)(F)F (centres unmarked) [1a]	3017
C[N+](C)=C1[S][Au-2]2([S]1)[c]1ccccc1Cc1cccc[n+]12.F[P-](F)(F)(F)(F)F (centres unmarked) [2a]	3267

Reference: article PMC8162438, “Cancer cell-selective modulation of mitochondrial respiration and metabolism by potent organogold(III) dithiocarbamates” (Chemical Science, 2020)
